Results on 34 compounds are retold here after patent US6472391B2, “Nitrogen-containing heterocyclic compounds” (Millennium Pharmaceuticals, Inc., priority 1996, dated 2002).

For one data set, the target named is T1, human β-PDGF receptor (Homo sapiens, UniProt P09619).
T1 construct: expressed in transfected cells; host or cells: Chinese hamster ovary cells (CHO)
Nature of the data set: Inhibitory effect on phosphorylation of PDGF receptor. Type of data set: cell-based. Particulars: CHO cells expressing human β-PDGF receptor. The procedure: Test Example 1 Inhibitory Effect on Phosphorylation of PDGF Receptor
The test was carried out according to the method described in the literature [Dah-Shuhn et al., J. Biol. Chem., 266, 413-418 (1991)], using Chinese hamster ovary cells (CHO) wherein human β-PDGF receptor cDNA was introduced and expressed.

The structures appear in SMILES notation.

T1 sequence (P09619 33-1106): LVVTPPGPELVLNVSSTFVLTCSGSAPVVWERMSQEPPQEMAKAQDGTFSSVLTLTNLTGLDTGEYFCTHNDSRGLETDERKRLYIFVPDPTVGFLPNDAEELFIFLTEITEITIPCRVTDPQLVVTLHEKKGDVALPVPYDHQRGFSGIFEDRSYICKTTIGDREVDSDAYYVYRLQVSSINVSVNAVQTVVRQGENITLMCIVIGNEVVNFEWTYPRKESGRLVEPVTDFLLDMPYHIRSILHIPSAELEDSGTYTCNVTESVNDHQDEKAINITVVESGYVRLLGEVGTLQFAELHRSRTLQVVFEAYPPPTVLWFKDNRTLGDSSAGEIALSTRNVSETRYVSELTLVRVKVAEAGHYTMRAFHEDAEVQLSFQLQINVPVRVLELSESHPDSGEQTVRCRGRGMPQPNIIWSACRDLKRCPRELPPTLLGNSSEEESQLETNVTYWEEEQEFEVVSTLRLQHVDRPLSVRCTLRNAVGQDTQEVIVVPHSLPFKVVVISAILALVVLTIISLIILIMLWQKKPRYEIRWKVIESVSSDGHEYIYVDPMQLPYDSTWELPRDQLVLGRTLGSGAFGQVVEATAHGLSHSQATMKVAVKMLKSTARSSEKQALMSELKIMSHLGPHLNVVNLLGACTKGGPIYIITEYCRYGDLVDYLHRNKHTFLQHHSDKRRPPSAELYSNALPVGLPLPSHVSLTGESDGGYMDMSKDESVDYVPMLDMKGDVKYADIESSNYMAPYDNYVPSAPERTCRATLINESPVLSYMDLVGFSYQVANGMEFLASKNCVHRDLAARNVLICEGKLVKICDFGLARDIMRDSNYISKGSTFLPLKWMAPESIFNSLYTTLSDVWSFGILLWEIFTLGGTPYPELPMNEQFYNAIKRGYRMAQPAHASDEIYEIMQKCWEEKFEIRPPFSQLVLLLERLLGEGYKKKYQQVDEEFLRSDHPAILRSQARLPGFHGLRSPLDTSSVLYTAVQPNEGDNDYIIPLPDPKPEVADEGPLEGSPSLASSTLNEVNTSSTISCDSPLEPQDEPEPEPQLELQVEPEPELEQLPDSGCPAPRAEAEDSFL

The term IC50 denotes the concentration that gives 50% inhibition. As usually defined, the melting point is the temperature of the solid-liquid transition. The compound `COc1cc2ncnc(N3C[C@@H](C)N(C(=S)NCc4ccccc4)[C@@H](C)C3)c2cc1OC` [Compound 433, N-Benzyl-4-(6,7-dimethoxy-4-quinazolinyl)-(cis-2,6-dimethyl)-1-piperazinethiocarboxamide] displayed a melting point of 165 to 166 °C. Moreover, the 50% inhibitory concentration (IC50) against human β-PDGF receptor worked out at 0.38 µM.

`Cc1ccc2c(N3CCN(C(=O)Nc4ccc(Oc5ccccc5)cc4)CC3)ncnc2c1` [Compound 312, 4-(7-Methyl-4-quinazolinyl)-N-(4-phenoxyphenyl)-1-piperazinecarboxamide] displayed a melting point of 184 to 185 °C. Besides, the midpoint of inhibition against human β-PDGF receptor, the IC50, lay at 0.26 µM.

`COc1cc2ncnc(N3CCN(C(=S)NCCCc4ccccc4)CC3)c2cc1OC` [Compound 135, 4-(6,7-Dimethoxy-4-quinazolinyl)-N-(3-phenylpropyl)-1-piperazinethiocarboxamide] returned a melting point of 147 to 148 °C. Also, the IC50 at human β-PDGF receptor is 0.46 µM.

The compound `COc1cc2ncnc(N3CCN(C(=S)NCc4cccnc4)CC3)c2cc1OC` [Compound 98, 4-(6,7-Dimethoxy-4-quinazolinyl)-N-(3-picolyl)-1-piperazinethiocarboxamide] returned a melting point of 104 to 106 °C. On human β-PDGF receptor, this compound gave an IC50 of 0.22 µM.

Regarding `COc1cc2ncnc(N3CCN(C(=S)NCc4ccc(C#N)cc4)CC3)c2cc1OC` [Compound 240, N-(4-Cyanobenzyl)-4-(6,7-dimethoxy-4-quinazolinyl)-1-piperazinethiocarboxamide], the melting point lay within 186 to 187 °C. The IC50 against human β-PDGF receptor was determined as 0.5 µM.

Compound `COc1cc2ncnc(N3CCN(C(=O)Nc4ccc(N=Nc5ccccc5)cc4)CC3)c2cc1OC` [Compound 229, 4-(6,7-Dimethoxy-4-quinazolinyl)-N-(4-phenylazophenyl)-1-piperazinecarboxamide] came in with a melting point of 244 to 246 °C. At human β-PDGF receptor, this compound came in with an IC50 of 0.31 µM. For `Cc1ccc2ncnc(N3CCN(C(=O)Nc4ccc(Oc5ccccc5)cc4)CC3)c2c1` [Compound 292, 4-(6-Methyl-4-quinazolinyl)-N-(4-phenoxyphenyl)-1-piperazinecarboxamide], in that order: 244 to 246 °C and 0.76 µM. In turn, `COc1cc2ncnc(N3CCN(C(=O)Nc4ccoc4)CC3)c2cc1OC` [Compound 255, 4-(6,7-Dimethoxy-4-quinazolinyl)-N-(3-furyl)-1-piperazinecarboxamide] displayed a melting point of 213 to 215 °C. At human β-PDGF receptor, this compound had an IC50 of 0.66 µM.

As to `COc1cc2ncnc(N3CCN(C(=S)Nc4ccc(CNC(=O)OC(C)(C)C)cc4)CC3)c2cc1OC` [Compound 228, N-[4-(N-tert-Butoxycarbonylaminomethyl)phenyl]-4-(6,7-dimethoxy-4-quinazolinyl)-1-piperazinethiocarboxamide], the melting point was 123 to 126 °C. The half-inhibitory concentration (IC50) on human β-PDGF receptor was 0.29 µM. `COc1cc2ncnc(N3CCN(C(=S)Nc4ccc5c(c4)CCC5)CC3)c2cc1OC` [Compound 9, 4-(6,7-Dimethoxy-4-quinazolinyl)-N-(5-indanyl)-1-piperazinethiocarboxamide] displayed a melting point of 207 to 210 °C. The compound further yielded an IC50 on human β-PDGF receptor of 0.67 µM. The matching figures for `COc1cc2ncnc(N3CCN(C(=O)Nc4ccc(-n5cccc5)nc4)CC3)c2cc1OC` [Compound 283, 4-(6,7-Dimethoxy-4-quinazolinyl)-N-[2-(1-pyrrolyl)-5-pyridyl]-1-piperazinecarboxamide]: 252 to 254 °C and 1.4 µM.

Consider `COc1cc2ncnc(N3CCN(C(=O)Nc4ccc(Cl)c(Cl)c4)CC3)c2cc1OC` [Compound 54, N-(3,4-Dichlorophenyl)-4-(6,7-dimethoxy-4-quinazolinyl)-1-piperazinecarboxamide], for which the melting point lay within 221 to 222 °C. The half-inhibitory concentration (IC50) against human β-PDGF receptor worked out at 0.71 µM. The matching figures for `S=C(NCc1cccnc1)N1CCN(c2ncnc3cc4ccccc4cc23)CC1` [Compound 366, 4-(4-Benzo[g]quinazolinyl)-N-(3-picolyl)-1-piperazinethiocarboxamide]: 107 to 110 °C and 1.47 µM. Take `O=C(Nc1ccc(Oc2ccccc2)cc1)N1CCN(c2ncnc3cc(Cl)c([N+](=O)[O-])cc23)CC1` [Compound 357, 4-(7-Chloro-6-nitro-4-quinazolinyl)-N-(4-phenoxyphenyl)-1-piperazinecarboxamide]: the melting point was in the range of 190 to 191 °C. The compound further showed an IC50 at human β-PDGF receptor of 0.19 µM. `COc1cc2ncnc(N3CCN(C(=O)Nc4ccc(OC(F)(F)F)cc4)CC3)c2cc1OC` [Compound 59, 4-(6,7-Dimethoxy-4-quinazolinyl)-N-[4-(trifluoromethoxy)phenyl]-1-piperazinecarboxamide] displayed a melting point of 204 to 205 °C. Regarding `COc1cc2ncnc(N3CCN(C(=S)NCc4cccc5ccccc45)CC3)c2cc1OC` [Compound 132, 4-(6,7-Dimethoxy-4-quinazolinyl)-N-(1-naphthylmethyl)-1-piperazinethiocarboxamide], the melting point is 164 to 165 °C. On the same count and under the same terms, with `COc1cc2ncnc(N3CCN(C(=O)Nc4cccc(I)c4)CC3)c2cc1OC` [Compound 186, 4-(6,7-Dimethoxy-4-quinazolinyl)-N-(3-iodophenyl)-1-piperazinecarboxamide] the figure was 205 to 208 °C. On the same count and under the same terms, the result for `COc1cc2ncnc(N3CCN(C(=S)Nc4ccc5c(c4)OCO5)CC3)c2cc1OC` [Compound 68, 4-(6,7-Dimethoxy-4-quinazolinyl)-N-(3,4-methylenedioxyphenyl)-1-piperazinethiocarboxamide] reads 207 to 211 °C; that for `COc1cc2c(N3CCN(C(=S)NCc4ccccc4)CC3)ncnc2cc1OC(C)C` [Compound 341, N-Benzyl-4-(7-isopropoxy-6-methoxy-4-quinazolinyl)-1-piperazinethiocarboxamide], 174 to 175 °C. As for `O=C(Nc1ccc(Oc2ccccc2)cc1)N1CCN(c2ccnc3ccccc23)CC1` [Compound 394, N-(4-Phenoxyphenyl)-4-(4-quinolyl)-1-piperazinecarboxamide], the melting point lay within 145 to 146 °C.

On to `O=C(Nc1ccc(Oc2ccccc2)cc1)N1CCN(c2nnc(Cc3ccccc3)c3ccccc23)CC1` [Compound 418, 4-(4-Benzyl-1-phthalazinyl)-N-(4-phenoxyphenyl)-1-piperazinecarboxamide], for which the melting point was 100 to 101 °C. Compound `COc1cc2ncnc(N3CCN(C(=O)Nc4ccsc4)CC3)c2cc1OC` [Compound 257, 4-(6,7-Dimethoxy-4-quinazolinyl)-N-(3-thienyl)-1-piperazinecarboxamide] came in with a melting point of 239 to 241 °C. Consider `COc1ccc2ncnc(N3CCN(C(=O)Nc4ccc([N+](=O)[O-])cc4)CC3)c2c1` [Compound 308, 4-(6-Methoxy-4-quinazolinyl)-N-(4-nitrophenyl)-1-piperazinecarboxamide], for which the melting point lay in the range of 228 to 229 °C. Take `COc1cc2ncnc(N3CCN(C(=S)Nc4ccc(Cc5ccncc5)cc4)CC3)c2cc1OC` [Compound 282, 4-(6,7-Dimethoxy-4-quinazolinyl)-N-[4-(4-picolyl)phenyl]-1-piperazinethiocarboxamide]: the melting point was in the range of 198 to 200 °C.

`O=C(Nc1ccc(Oc2ccccc2)cc1)N1CCN(c2ncnc3cc4ccccc4cc23)CC1` [Compound 363, 4-(4-Benzo[g]quinazolinyl)-N-(4-phenoxyphenyl)-1-piperazinecarboxamide] yielded a melting point of 105 to 108 °C. The compound `COc1cc2ncnc(N3CCN(C(=S)NCc4ccc(C)c(Cl)c4)CC3)c2cc1OC` [Compound 190, N-(3-Chloro-4-methylbenzyl)-4-(6,7-dimethoxy-4-quinazolinyl)-1-piperazinethiocarboxamide] showed a melting point of 108 to 110 °C. Still for that read-out and setting: the result for `COc1cc2ncnc(N3CCN(C(=O)Nc4ccc(CNCc5ccncc5)cc4)CC3)c2cc1OC.Cl.Cl.Cl` reads 182 to 185 °C.

The compound `COc1cc2ncnc(N3CCN(C(=S)Nc4ccc(N=Nc5ccc(N(C)C)cc5)cc4)CC3)c2cc1OC` [Compound 74, 4-(6,7-Dimethoxy-4-quinazolinyl)-N-[4-(4-dimethylaminophenylazo)phenyl]-1-piperazinethiocarboxamide] came in with a melting point of 148 to 149 °C. Turning to `COc1cc2ncnc(N3CCN(C(=S)NCc4ccc(Cl)c(Cl)c4)CC3)c2cc1OC` [Compound 195, N-(3,4-Dichlorobenzyl)-4-(6,7-dimethoxy-4-quinazolinyl)-1-piperazinethiocarboxamide], the melting point is 197 to 200 °C. `COc1cc2ncnc(N3CCN(C(=O)Nc4ccccc4F)CC3)c2cc1OC` [Compound 34, 4-(6,7-Dimethoxy-4-quinazolinyl)-N-(2-fluorophenyl)-1-piperazinecarboxamide] yielded a melting point of 176 to 177 °C. For `COc1cc2ncnc(N3CCN(C(=O)Nc4cccc(SC)c4)CC3)c2cc1OC` [Compound 217, 4-(6,7-Dimethoxy-4-quinazolinyl)-N-(3-methylthiophenyl)-1-piperazinecarboxamide], the melting point was 180 to 181 °C. `COc1cc2ncnc(N3CCN(C(=S)NC(=O)C=Cc4ccccc4)CC3)c2cc1OC` [Compound 143, N-Cinnamoyl-4-(6,7-dimethoxy-4-quinazolinyl)-1-piperazinethiocarboxamide] had a melting point of 184 to 186 °C.

For the compound `COc1cc2ncnc(N3CCN(C(=S)NCc4ccc(OC(F)(F)F)cc4)CC3)c2cc1OC` [Compound 204, 4-(6,7-Dimethoxy-4-quinazolinyl)-N-(4-trifluoromethoxybenzyl)-1-piperazinethiocarboxamide], the melting point is 131 to 132 °C.

With `Cc1ccc2ncnc(N3CCN(C(=S)NCc4cccnc4)CC3)c2c1` [Compound 295, 4-(6-Methyl-4-quinazolinyl)-N-(3-picolyl)-1-piperazinethiocarboxamide], the melting point was in the range of 128 to 129 °C.
